According to PMC8963254, “Effects of Lysine N-ζ-Methylation in Ultrashort Tetrabasic Lipopeptides (UTBLPs) on the Potentiation of Rifampicin, Novobiocin, and Niclosamide in Gram-Negative Bacteria” (Antibiotics, 2022):
In brackets after ≈: the same amount, converted by molar mass. Several values for one entry are separate records, joined by “and”; a condition that tells them apart may be missing. Identical values can stand only once. Like-named read-outs stand apart in the source and are kept apart here.

Columns and labels:
[1] = test system: P. aeruginosa PA262-101856; assay: microbe, parasite or virus in culture; assay type: cell-based, Pseudomonas aeruginosa; conditions: Pseudomonas aeruginosa, PA262101856, 18 h; P. aeruginosa 262-101856; read-out: MICs of various antibiotics
Experimental: (§1) The in vitro antibacterial activity of the UTBLPs was assessed against wild-type and clinically isolated bacterial strains. To obtain the MIC of the compounds, the microbroth dilution susceptibility assay was performed according to the Clinical and Laboratory Standards Institute (CLSI, Wayne, PA, USA) guidelines and as previously described. Briefly, the compounds at varying concentrations were incubated with bacterial inoculum (5 × 10^5 CFU/mL final concentration) at 37 °C for 18 h. Growth in the form of turbidity was confirmed using an EMax Plus microplate reader (Molecular Devices, San Jose, CA, USA) at 590 nm.

[2] = test system: P. aeruginosa PA259-96196; assay: microbe, parasite or virus in culture; assay type: cell-based, Pseudomonas aeruginosa; conditions: Pseudomonas aeruginosa, PA25996196, 18 h; P. aeruginosa 259-96196; read-out: MICs of various antibiotics
Experimental: as §1

A. baumannii AB027 [3] = assay: microbe, parasite or virus in culture; assay type: cell-based, Acinetobacter baumannii; conditions: Acinetobacter baumannii, 18 h; A. baumannii AB027; read-out: MICs of various antibiotics
Experimental: as §1

K. pneumoniae 113250 [4] = assay: microbe, parasite or virus in culture; assay type: cell-based, Klebsiella pneumoniae; conditions: Klebsiella pneumoniae, 18 h; K. pneumoniae 113250; read-out: MICs of various antibiotics
Experimental: as §1

E. coli 94393 [5] = assay: microbe, parasite or virus in culture; assay type: cell-based, Escherichia coli; conditions: Escherichia coli, 18 h; E. coli 94393 (mcr-1 +); read-out: MICs of various antibiotics
Experimental: as §1

E. coli 94474 [6] = assay: microbe, parasite or virus in culture; assay type: cell-based, Escherichia coli; conditions: Escherichia coli, 18 h; E. coli 94474 (mcr-1 +); read-out: MICs of various antibiotics
Experimental: as §1

A. baumannii ATCC 17978 = assay type: cell-based, Acinetobacter baumannii
Experimental: (§2) The synergy of the UTBLPs with various antibiotics was assessed using checkerboard assay as previously described. Briefly, the combination of antibiotic and OMP at varying concentrations were incubated with bacterial inoculum (5 × 10^5 CFU/mL final concentration) at 37 °C for 18 h. Growth in the form of turbidity was confirmed using an EMax Plus microplate reader (Molecular Devices, Union City, CA, USA) at 590 nm. Fractional inhibitory concentration index (FICI) was used to evaluate the interaction between the antibiotic and the OMP. FICI is the sum of the FIC of the antibiotic and the FIC of the OMP. The FIC value is calculated by dividing the MIC of the agents in combination by the MIC of the agent alone. FICI ≤ 0.5 is synergistic, 0.5 < x ≤ 4 is additive, and >4 is antagonistic.

P. aeruginosa PAO1 = assay type: cell-based, Pseudomonas aeruginosa
Experimental: as §2

E. coli ATCC 25922 = assay type: cell-based, Escherichia coli
Experimental: as §2

A. baumannii AB027 [7] = assay type: cell-based, Acinetobacter baumannii
Experimental: as §2

A. baumannii 92247 = assay type: cell-based, Acinetobacter baumannii
Experimental: as §2

[8] = test system: P. aeruginosa PA262-101856; assay type: cell-based, Pseudomonas aeruginosa
Experimental: as §2

[9] = test system: P. aeruginosa PA259-96196; assay type: cell-based, Pseudomonas aeruginosa
Experimental: as §2

E. coli 94393 [10] = assay type: cell-based, Escherichia coli
Experimental: as §2

E. coli 94474 [11] = assay type: cell-based, Escherichia coli
Experimental: as §2

E. cloacae 118564 = assay type: cell-based, Enterobacter cloacae
Experimental: as §2

K. pneumoniae 113250 [12] = assay type: cell-based, Klebsiella pneumoniae; conditions: rifampicin alone
Experimental: as §2

SMILES | MIC [1] [µg/mL] | MIC [2] [µg/mL] | MIC (A. baumannii AB027 [3]) [µg/mL] | MIC (K. pneumoniae 113250 [4]) [µg/mL] | MIC (E. coli 94393 [5]) [µg/mL] | MIC (E. coli 94474 [6]) [µg/mL] | further results
CO/N=C(\C(=O)N[C@@H]1C(=O)N2C(C(=O)O)=C(CSc3nc(=O)c(=O)[nH]n3C)CS[C@H]12)c1csc(N)n1 [CTR, ceftriaxone] | 64 (≈ 115 µM) | > 64 | – | – | – | – | –
CO/N=C(\C(=O)N[C@@H]1C(=O)N2C(C(=O)O)=C(COC(C)=O)CS[C@H]12)c1csc(N)n1 [CTX, cefotaxime] | 128 (≈ 281 µM) | 2050 (≈ 4500 µM) | > 256 | – | – | – | –
C[C@@H](O)[C@H]1C(=O)N2C(C(=O)O)=C(S[C@@H]3CN[C@H](CNS(N)(=O)=O)C3)[C@H](C)[C@H]12 [DOR, doripenem] | 16 (≈ 38 µM) | > 1020 | – | – | – | – | –
CN(C)[C@@H]1C(O)=C(C(N)=O)C(=O)[C@@]2(O)C(O)=C3C(=O)c4c(O)c(NC(=O)CN5CCCC5)cc(F)c4C[C@H]3C[C@@H]12 [ERC, eravacycline] | 8 (≈ 14.3 µM) | 8 (≈ 14.3 µM) | 0.5 (≈ 0.895 µM) | 1 (≈ 1.79 µM) | 0.5 (≈ 0.895 µM) | 1 (≈ 1.79 µM) | –
C[C@@H](O)[C@H]1C(=O)N2C(C(=O)O)=C(S[C@@H]3CN[C@H](C(=O)Nc4cccc(C(=O)O)c4)C3)[C@H](C)[C@H]12 [ETP, ertapenem] | > 32 | > 32 | – | ≤ 0.03 | ≤ 0.03 | ≤ 0.03 | –
C[C@@H](O)[C@H]1C(=O)N2C(C(=O)O)=C(SCCN=CN)C[C@H]12 [IMI, imipenem] | 32 (≈ 107 µM) | 32 (≈ 107 µM) | 32 (≈ 107 µM) | 0.25 (≈ 0.835 µM) | 0.25 (≈ 0.835 µM) | 0.25 (≈ 0.835 µM) | –
C[C@H]1COc2c(N3CCN(C)CC3)c(F)cc3c(=O)c(C(=O)O)cn1c23 [LEV, levofloxacin] | 64 (≈ 177 µM) | 256 (≈ 708 µM) | 8 (≈ 22.1 µM) | 0.125 (≈ 0.346 µM) | 1 (≈ 2.77 µM) | 32 (≈ 88.6 µM) | –
O=C(Nc1ccc([N+](=O)[O-])cc1Cl)c1cc(Cl)ccc1O [Niclosamide, niclosamide] | – | – | – | – | – | – | MICantibiotic (A. baumannii ATCC 17978; niclosamide alone): 1024 µg/mL and > 1024 µg/mL and 512 µg/mL; MICantibiotic (P. aeruginosa PAO1; niclosamide alone): 1024 µg/mL; MICantibiotic (E. coli ATCC 25922; niclosamide alone): > 128 µg/mL and > 256 µg/mL
CO[C@@H]1[C@@H](OC(N)=O)[C@@H](O)[C@H](Oc2ccc3c(O)c(NC(=O)c4ccc(O)c(CC=C(C)C)c4)c(=O)oc3c2C)OC1(C)C [Novobiocin, novobiocin] | – | – | – | – | – | – | MICantibiotic (A. baumannii AB027 [7]; novobiocin alone): 8 µg/mL and 16 µg/mL; MICantibiotic (A. baumannii 92247; novobiocin alone): 2 µg/mL and 4 µg/mL; MICantibiotic ([8]; novobiocin alone): 1024 µg/mL and 2048 µg/mL and > 1024 µg/mL; MICantibiotic ([9]; novobiocin alone): 2048 µg/mL and 1024 µg/mL; MICantibiotic (P. aeruginosa PAO1; novobiocin alone): 512 µg/mL and 1024 µg/mL; MICantibiotic (E. coli 94393 [10]; novobiocin alone): 128 µg/mL and 64 µg/mL; MICantibiotic (E. coli 94474 [11]; novobiocin alone): 256 µg/mL and 128 µg/mL; MICantibiotic (E. coli ATCC 25922; novobiocin alone): 32 µg/mL and 64 µg/mL; MICantibiotic (E. cloacae 118564; novobiocin alone): 256 µg/mL
CN(C)c1cc(CNCC(C)(C)C)c(O)c2c1C[C@H]1C[C@H]3[C@H](N(C)C)C(O)=C(C(N)=O)C(=O)[C@@]3(O)C(O)=C1C2=O [OMC, omadacycline] | 64 (≈ 115 µM) | 64 (≈ 115 µM) | 1 (≈ 1.8 µM) | 2 (≈ 3.59 µM) | 4 (≈ 7.19 µM) | 16 (≈ 28.7 µM) | –
CO[C@H]1/C=C/O[C@@]2(C)Oc3c(C)c(O)c4c(O)c(c(/C=N/N5CCN(C)CC5)c(O)c4c3C2=O)NC(=O)/C(C)=C\C=C\[C@H](C)[C@H](O)[C@@H](C)[C@@H](O)[C@@H](C)[C@H](OC(C)=O)[C@@H]1C [Rifampicin, rifampicin] | – | – | – | – | – | – | MICantibiotic (A. baumannii AB027 [7]; rifampicin alone): 1 µg/mL; MICantibiotic (A. baumannii 92247; rifampicin alone): 1 µg/mL and 2 µg/mL; MICantibiotic (A. baumannii ATCC 17978; rifampicin alone): 1 µg/mL and 2 µg/mL; MICantibiotic ([8]; rifampicin alone): 512 µg/mL and 1024 µg/mL; MICantibiotic ([9]; rifampicin alone): 16 µg/mL; MICantibiotic (P. aeruginosa PAO1; rifampicin alone): 16 µg/mL and 8 µg/mL; MICantibiotic (K. pneumoniae 113250 [12]): 16 µg/mL and 8 µg/mL; MICantibiotic (E. coli 94393 [10]; rifampicin alone): 4 µg/mL; MICantibiotic (E. coli 94474 [11]; rifampicin alone): 4 µg/mL and 8 µg/mL; MICantibiotic (E. coli ATCC 25922; rifampicin alone): 4 µg/mL and 2 µg/mL; MICantibiotic (E. cloacae 118564; rifampicin alone): 8 µg/mL
